In patent US20240368174A1, “Antiviral Heterocyclic Compounds” (Enanta Pharmaceuticals, Inc., priority 2023, published 2024) one finds EC50 data, which are given here for 40 molecules.

Molecules are shown by their SMILES. Where only a bound is given, the exact number is not on record here.

For test [1], the system named is genotype A, “Long” strain RSV. As to the kind of experiment: RSV-A assay (CPE, ATPlite readout in Hep-2 cells). It counts as cell-based, Human respiratory syncytial virus. Conditions: human respiratory syncytial virus, activity class. The method in brief:
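Hep-2, 8,000 cells/well, MOI 0.1 (PFU- or TCID50-based); 2-fold compound series, duplicates; 5 d incubation; ATPlite luminescence readout; EC50.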

Test [2] has as its system HMPV clinical isolate A2 strain TN 94-49. As to the kind of experiment: HMPV antiviral assay, Method 2 (LLC-MK2 cells with CP-100-356, ATP-Lite). The test is classed as cell-based. The conditions noted are these: human metapneumovirus. The method in brief: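 LLC-MK2 rhesus kidney cells (5,000/well) infected in suspension with HMPV A2 TN 94-49 at MOI 0.16, in serum-free medium with final 2 μg/mL TPCK-trypsin and 2 μM CP-100-356. Compounds tested in duplicate from 200 nM, 2.5-fold, 10 points; 7 days at 37 °C. Cell health by ATP-Lite luminescence; EC50 by four-parameter fit.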

Setting [3] is: hMPV A2 TN/94-49, LLC-MK2 cells with CP-100-356, Method 2.
The mark [4] stands for this setting: 168 h, hMPV A2 TN/94-49, LLC-MK2 cells with 4 μM CP-100-356, 7 days, ATP-Lite.

`COc1cc(C(=O)NC[C@](O)(c2cc3c(c(-c4ccc(F)c(Cl)c4Cl)n2)OC[C@]3(C)C(N)=O)C2CC2)cc2cc(Cl)cnc12` [Example 320]: the concentration giving a half-maximal response (EC50) in test [1] and in test [2] (setting [3]) was less than 200 nM in each case.

Regarding `COc1cc(C(=O)NC[C@](O)(c2cc3c(c(-c4ccnc(C)c4Cl)n2)OC[C@]3(C)C(N)=O)C2(F)CC2)cc2cn(C(F)F)nc12` [Example 527], the values for the EC50 in test [1] and in test [2] (setting [3]) were less than 200 nM and more than 200 nM, respectively.

Take `COc1cc(C(=O)NC[C@](O)(c2cc3c(c(-c4cscc4C)n2)OC[C@]3(C)C(N)=O)C2CC2)cc2cn(C3CC3)nc12` [Example 414]: the concentration giving a half-maximal response (EC50) in test [1] and in test [2] (setting [3]) was less than 200 nM each time.

Regarding `COc1cc(C(=O)NC[C@](O)(c2cc3c(c(-c4ccnc(C(F)F)c4Cl)n2)OC[C@]3(C)C(N)=O)C2CC2)cc2cn(C3(F)CC3)nc12` [Example 786], the EC50 in test [1] and in test [2] (setting [4]) was less than 200 nM each time.

`COc1cc(C(=O)NC[C@](O)(c2cc3c(c(-c4cc(C(F)(F)F)ncc4F)n2)OC[C@]3(C)C(N)=O)C2CC2)cc2cn(C3(F)CC3)nc12` [Example 348]: the EC50 in test [1] and in test [2] (setting [3]) was less than 200 nM each time.

With `C[C@]1(C(N)=O)COc2c1cc([C@@](O)(CNC(=O)c1cc(Cl)c3nn(C4CC4)cc3c1)C1(F)CC1)nc2-c1cc(C(F)(F)F)ncc1F` [Example 671], the EC50 in test [1] and in test [2] (setting [4]) was less than 200 nM throughout.

In the case of `COc1cc(C(=O)NC[C@](O)(c2cccc(F)c2)c2cc3c(c(-c4ccnc(F)c4Cl)n2)OC[C@]3(C)C(N)=O)cc2cn(C3(F)CC3)nc12` [Example 402], the EC50 in test [1] and in test [2] (setting [3]) was more than 200 nM in each case.

Regarding `COc1cc(C(=O)NC[C@](O)(c2cc3c(c(-n4ccc5c(F)cccc54)n2)OC[C@]3(C)C(N)=O)C2CC2)cc2cn(C3(F)CC3)nc12` [Example 777], the half-maximal effective concentration (EC50) in test [1] and in test [2] (setting [4]) was less than 200 nM each time.

Take `COc1cc(C(=O)NC[C@](O)(c2cc3c(c(-c4cc(F)c(F)cc4F)n2)OC[C@]3(C)C(N)=O)C2CC(F)(F)C2)cc2cn(C3(F)CC3)nc12` [Example 123]: the EC50 in test [1] and in test [2] (setting [3]) was less than 200 nM throughout.

With `COc1cc(C(=O)NC[C@@](O)(c2cccc(F)c2)c2cc3c(c(-c4cc(Cl)ncc4F)n2)OC[C@]3(C)C(N)=O)cc2cn(C3CC3)nc12` [Example 410], the concentration giving a half-maximal response (EC50) in test [1] and in test [2] (setting [3]) was less than 200 nM throughout.

Consider `COc1cc(C(=O)NC[C@](O)(c2cc3c(c(-n4ncc5cc(F)ccc54)n2)OC[C@]3(C)C(N)=O)C2CC2)cc2cn(C3CC3)nc12` [Example 821], for which the concentration giving a half-maximal response (EC50) in test [1] and in test [2] (setting [4]) was less than 200 nM in each case.

Consider `COc1cc(C(=O)NC[C@](O)(c2cc3c(c(-c4csc(Cl)c4)n2)OC[C@]3(C)C(N)=O)C2CC2)cc2cn(C3CC3)nc12` [Example 416], for which the EC50 in test [1] and in test [2] (setting [3]) was less than 200 nM each time.

For `COc1cc(C(=O)NC[C@@](O)(CC2CC2)c2cc3c(c(-c4cc(Cl)c(F)cc4F)n2)OC[C@]3(C)C(N)=O)cc2cn(C3CC3)nc12` [Example 517], the EC50 in test [1] and in test [2] (setting [3]) was more than 200 nM in each case.

Turning to `COc1cc(C(=O)NC[C@](O)(c2cc3c(c(-c4cccc(F)c4Cl)n2)OC[C@]3(C)C(N)=O)C2CC2)cc2cn(C3(F)CC3)nc12` [Example 615], the EC50 in test [1] and in test [2] (setting [3]) was less than 200 nM each time.

Take `C[C@]1(C(N)=O)COc2c1cc([C@@](O)(CNC(=O)c1cc(OC3CC3)c3ncc(Cl)cc3c1)C1CC1)nc2-c1ccc2c(c1Cl)OC(F)(F)O2` [Example 106]: the EC50 in test [1] and in test [2] (setting [3]) was less than 200 nM each time.

Consider `COc1cc(C(=O)NC[C@](O)(c2cc3c(c(-c4cc(F)c(F)cc4F)n2)OC[C@]3(C)C(N)=O)C2CC2)ccc1OC[C@@H](C)O` [Example 125], for which the EC50 in test [1] is less than 200 nM; in test [2] (setting [3]), more than 200 nM.

For the molecule `C[C@]1(C(N)=O)COc2c1cc([C@@](O)(CNC(=O)c1cc(OCCO)c3nn(C4CC4)cc3c1)C1CC1)nc2-c1ccc2c(c1Cl)OC(F)(F)O2` [Example 681], the EC50 in test [1] and in test [2] (setting [4]) was less than 200 nM in each case.

Consider `C[C@]1(C(N)=O)COc2c1cc([C@@](O)(CNC(=O)c1cc(Cl)c3nn(C(F)F)cc3c1)c1ccccc1)nc2-c1cc(Cl)c(F)cc1F` [Example 102], for which the EC50 was less than 200 nM in test [1] and more than 200 nM in test [2] (setting [3]).

In the case of `COc1cc(C(=O)NC[C@](O)(c2cc3c(c(-c4cc(C(F)(F)F)ncc4F)n2)OC[C@]3(C)C(N)=O)C2(F)CC2)cc2oc(C3CC3)nc12` [Example 670], the concentration for a half-maximal effect (EC50) in test [1] and in test [2] (setting [4]) was less than 200 nM throughout.

As to `COc1cc(C(=O)NC[C@@](O)(c2ccccc2)c2cc3c(c(-n4ncc5c(F)cccc54)n2)OC[C@]3(C)C(N)=O)cc2oc(C3CC3)nc12` [Example 631], the 50% effective concentration (EC50) in test [1] and in test [2] (setting [4]) was less than 200 nM in each case.

For the molecule `C[C@]1(C(N)=O)COc2c1cc([C@@](O)(CNC(=O)c1cc(OC3CC3)c3ncc(Cl)cc3c1)C1CC1)nc2-c1ccc2c(c1)OC(F)(F)O2` [Example 108], the EC50 in test [1] and in test [2] (setting [3]) was less than 200 nM each time.

Consider `COc1cc(C(=O)NC[C@](O)(c2cc3c(c(-c4cc(F)nc(F)c4)n2)OC[C@]3(C)C(N)=O)C2CC2)cc2cn(C3CC3)nc12` [Example 390], for which the 50% effective concentration (EC50) in test [1] and in test [2] (setting [3]) was less than 200 nM each time.

For `COc1cc(C(=O)NC[C@](O)(c2cc3c(c(-c4ccnc(C)c4Cl)n2)OC[C@]3(C)C(N)=O)C2(F)CC2)cc2cn(C3CC3)nc12` [Example 531], the concentration for a half-maximal effect (EC50) in test [1] and in test [2] (setting [3]) was less than 200 nM each time.

Consider `COc1cc(C(=O)NC[C@](O)(c2cccc(F)c2)c2cc3c(c(-c4cc(F)cnc4Cl)n2)OC[C@]3(C)C(N)=O)cc2cn(C3(F)CC3)nc12` [Example 404], for which the EC50 in test [1] and in test [2] (setting [3]) was more than 200 nM in each case.

`COc1cc(C(=O)NC[C@](O)(c2cc3c(c(-c4ccsc4)n2)OC[C@]3(C)C(N)=O)C2CC2)cc2cn(C3CC3)nc12` [Example 413]: the EC50 in test [1] and in test [2] (setting [3]) was less than 200 nM each time.

For the molecule `COc1cc(C(=O)NC[C@](O)(c2cc3c(c(-c4ccc(F)c(Cl)c4Cl)n2)OC[C@]3(C)C(N)=O)C2CC2)cc2cn(C(F)F)nc12` [Example 323], the concentration for a half-maximal effect (EC50) in test [1] and in test [2] (setting [3]) was less than 200 nM throughout.

As for `COc1cc(C(=O)NC[C@](O)(c2cc3c(c(-n4ncc5c(F)cccc54)n2)OC[C@]3(C)C(N)=O)C2CC2)cc2cn(C3(F)CC3)nc12` [Example 613], the 50% effective concentration (EC50) in test [1] and in test [2] (setting [3]) was less than 200 nM each time.

As for `COc1cc(C(=O)NC[C@](O)(c2cc3c(c(-c4cc(Cl)c(F)cc4F)n2)OC[C@]3(C)C(N)=O)C(C)C)cc2cn(C3CC3)nc12` [Example 476], the half-maximal effective concentration (EC50) in test [1] and in test [2] (setting [3]) was less than 200 nM throughout.

As for `COc1cc(C(=O)NC[C@@](O)(c2ccccc2)c2cc3c(c(-n4ncc5c(F)cccc54)n2)OC[C@]3(C)C(N)=O)cc2cn(C3CC3)nc12` [Example 628], the EC50 in test [1] and in test [2] (setting [4]) was less than 200 nM each time.

For `COc1cc(C(=O)NC[C@](O)(c2cc3c(c(-c4cc(C)ncc4F)n2)OC[C@]3(C)C(N)=O)C2CC2)cc2cn(C3CC3)nc12` [Example 412], the EC50 in test [1] and in test [2] (setting [3]) was less than 200 nM in each case.

For `COc1nccc(-c2nc([C@@](O)(CNC(=O)c3cc(OC)c4nn(C5CC5)cc4c3)C(F)(F)F)cc3c2OC[C@]3(C)C(N)=O)c1Cl` [Example 796], the EC50 in test [1] and in test [2] (setting [4]) was less than 200 nM in each case.

Turning to `COc1cc(C(=O)NC[C@](O)(c2cc3c(c(-c4cc(C(F)(F)F)c(F)cc4F)n2)OC[C@]3(C)C(N)=O)C2CC2)cc2cc(C3CC3)nn12` [Example 327], the EC50 in test [1] and in test [2] (setting [3]) was less than 200 nM throughout.

With `COc1cc(C(=O)NC[C@](O)(c2cc3c(c(-c4ccnc(C(F)(F)F)c4Cl)n2)OC[C@]3(C)C(N)=O)C(F)(F)F)cc2cn(C3CC3)nc12` [Example 783], the EC50 in test [1] and in test [2] (setting [4]) was less than 200 nM in each case.

As for `COc1cc(C(=O)NC[C@@](O)(c2cccc(F)c2)c2cc3c(c(-c4ccnc(F)c4Cl)n2)OC[C@]3(C)C(N)=O)cc2cn(C3CC3)nc12` [Example 407], the EC50 in test [1] and in test [2] (setting [3]) was less than 200 nM throughout.

As for `COc1cc(C(=O)NC[C@](O)(c2cc3c(c(-c4ccnc(C(F)F)c4Cl)n2)OC[C@]3(C)C(N)=O)C2CC2)cc2cn(C3CC3)nc12` [Example 780], the EC50 in test [1] and in test [2] (setting [4]) was less than 200 nM each time.

As to `COc1cc(C(=O)NC[C@@](O)(c2cccc(F)c2)c2cc3c(c(-c4cc(F)ncc4Cl)n2)OC[C@]3(C)C(N)=O)cc2cn(C3CC3)nc12` [Example 376], the EC50 in test [1] and in test [2] (setting [3]) was less than 200 nM each time.

For the molecule `C#CC(O)(CNC(=O)c1cc(OC)c2nn(C3CC3)cc2c1)c1cc2c(c(-c3cc(Cl)c(F)cc3F)n1)OC[C@]2(C)C(N)=O` (some centres unmarked) [Example 473], the 50% effective concentration (EC50) was less than 200 nM in test [1] and more than 200 nM in test [2] (setting [3]).

For the molecule `COc1cc(C(=O)NC[C@](O)(c2cc3c(c(-c4cc(C(F)(F)F)ncc4F)n2)OC[C@]3(C)C(N)=O)C2CC2)cc2oc(C3CC3)nc12` [Example 349], the EC50 in test [1] and in test [2] (setting [3]) was less than 200 nM throughout.

`COc1cc(C(=O)NC[C@](O)(c2cc3c(c(-c4ccc(F)c(Cl)c4)n2)OC[C@]3(C)C(N)=O)C2CC2)cc2oc(C3CC3)nc12` [Example 111]: the EC50 in test [1] is less than 200 nM; in test [2] (setting [3]), more than 200 nM.

Consider `COc1cc(C(=O)NC[C@](O)(c2cc3c(c(-n4ccc5ccccc54)n2)OC[C@]3(C)C(N)=O)C2CC2)cc2cn(C3CC3)nc12` [Example 443], for which the concentration giving a half-maximal response (EC50) in test [1] and in test [2] (setting [3]) was less than 200 nM throughout.
